Values quoted from earlier work as cited in patent publication US11980624B2, “Methods for administering compositions comprising hydroxytyrosol and boswellic acid” (Nutramax Laboratories, Inc., priority 2016, dated 2024).

Conditions: single oral 2.5 mg/kg dose, human subjects

peak plasma concentration: 1.11 ± 0.20 µmol/L
Compound: OCCc1ccc(O)c(O)c1 [hydroxytyrosol, 4-(2-Hydroxyethyl)-1,2-benzenediol]
